Experimental findings from patent US8871786B2, “Azaindazole amide compounds as CCR1 receptor antagonists” (Boehringer Ingelheim International GmbH, priority 2010, dated 2014) are described below.

The assay concerns the target T1, CCR1 (Homo sapiens, UniProt P32246).
T1 sequence (P32246 1-355): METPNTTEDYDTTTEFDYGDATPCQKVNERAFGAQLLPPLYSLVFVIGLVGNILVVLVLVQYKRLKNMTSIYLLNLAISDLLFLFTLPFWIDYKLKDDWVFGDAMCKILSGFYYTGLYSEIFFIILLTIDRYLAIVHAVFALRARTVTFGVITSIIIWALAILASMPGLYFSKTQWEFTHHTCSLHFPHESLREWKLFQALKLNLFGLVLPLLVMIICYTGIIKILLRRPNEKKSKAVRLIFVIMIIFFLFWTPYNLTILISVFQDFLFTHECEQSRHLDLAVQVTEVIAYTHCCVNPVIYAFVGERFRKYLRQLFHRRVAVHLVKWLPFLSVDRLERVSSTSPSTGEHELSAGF
Nature of the assay: Calcium flux assay in CCR1 transfected cells (block of CCR1/MIP-1α interaction). The assay is classed as cell-based. The settings on record: cells stably expressing recombinant CCR1 and G-alpha-16; MIP-1 alpha at EC80; mean. As to the method:
Compounds are assessed for the ability to block the interaction of CCR1 and MIP-1α in a functional cellular assay measuring calcium flux in CCR1 transfected cells.
Non-adherent cells purchased from Chemicon Corporation (HTS005C), stably expressing recombinant CCR1 and G-alpha-16 are grown in RPMI 1640 medium (Mediatech 10-080-CM) supplemented with 10% FBS, 0.4 mg/mL Geneticin and penicillin/streptomycin. On the day of the assay, the cells are loaded with Calcium 4 dye (Molecular Devices R7448) with Probenecid (Invitrogen P346400) at 8E5 cells/mL for 1 hour at room temperature. After 1 hour, they are seeded in a 384-well tissue culture-treated plate at a density of 20,000 cells/well. Appropriately diluted test compound is added to the well to achieve a top concentration of 3,000 nM (diluted 4-fold with 10 doses total). The final concentration of DMSO is 1%. The buffer is HBSS (Invitrogen 14025) with 20 mM HEPES at pH 7.4. The cells incubate 30 minutes at 37 C and then 30 minutes at room temperature. The plates are transferred to the HAMAMATSU FDSS6000 where MIP-1 alpha in 1% BSA is added at the EC80 final concentration. All plates must be read within 4 hours of the start of dye-loading. Wells+/−MIP-1 alpha containing diluted DMSO instead of compound serve as the controls. Data are analyzed using Activity Base software.
In general terms: Calcium flux is commonly read through the fluorescence of an indicator in the cells.

Each structure is given as a SMILES string.

Regarding `Cc1cc(Cl)cc(C)c1NC(=O)c1cncc2c1cnn2-c1ccc(F)cc1`, the IC50 is 2.8 nM.
The result for `Cn1ncc(-c2ccccc2)c1NC(=O)c1cncc2c1cnn2-c1ccc(F)cc1` reads 84 nM; that for `CNC(=O)c1ccc(NC(=O)c2cncc3c2cnn3-c2ccc(F)cc2)c(C)c1`, 93 nM; that for `Cc1cccc(Cl)c1NC(=O)c1cncc2c1cnn2-c1ccc(F)cc1`, 36 nM.
Then `Cc1ccnc(C)c1NC(=O)c1cncc2c1cnn2-c1ccc(F)cc1`, with 21 nM; and `Cn1nccc1-c1cccc(NC(=O)c2cncc3c2cnn3-c2ccc(F)cc2)c1`, with 73 nM; and `Cc1onc(-c2ccccc2)c1NC(=O)c1cncc2c1cnn2-c1ccc(F)cc1`, with 14 nM.
On to `COC(=O)c1ccc(NC(=O)c2cncc3c2cnn3-c2ccc(F)cc2)c(C)c1`, for which the IC50 is 24 nM.
In the case of `Cc1cc(-c2nnco2)ccc1NC(=O)c1cncc2c1cnn2-c1ccc(F)cc1`, the half-maximal inhibitory concentration (IC50) is 30 nM.
With `Cc1noc(C)c1NC(=O)c1cncc2c1cnn2-c1ccc(F)cc1`, the IC50 is 6.9 nM.
In the case of `Cc1cc(C(=O)N(C)C)ccc1NC(=O)c1cncc2c1cnn2-c1ccc(F)cc1`, the IC50 was 66 nM.
As for `Cc1nc(Cl)ccc1NC(=O)c1cncc2c1cnn2-c1ccc(F)cc1`, the IC50 stood at 8.8 nM.
Regarding `Cc1ccc(NC(=O)c2cncc3c2cnn3-c2ccc(F)cc2)c(Cl)n1`, the IC50 is 82 nM.
For `Cc1cc(C)c(S(C)(=O)=O)cc1NC(=O)c1cncc2c1cnn2-c1ccc(F)cc1`, the IC50 was 2.1 nM.
For the compound `Cc1cc(C)c(NC(=O)c2cncc3c2cnn3-c2ccc(F)cc2)c(C)c1`, the concentration for half-maximal inhibition (IC50) was 19 nM.

By IC50 is commonly meant the point on the concentration scale where inhibition reaches its midpoint.
